For this series the following is noted: 101.33 kPa, Liquid.

± gives the expanded uncertainty stated by the source.

Take `CC1CCCO1` (stereo not drawn) [2-methyltetrahydrofuran]: where the note is “283.15 K”, the mass density is given as 864.17 ± 0.55 kg/m3, the speed of sound was determined as 1276.6 ± 1.6 m/s and the viscosity is given as 0.5618 ± 0.015 mPa·s. Moreover, for the setting “298.15 K”, the mass density is listed as 849.04 ± 0.56 kg/m3, the speed of sound is on record as 1202.2 ± 1.6 m/s and the viscosity stood at 0.4776 ± 0.014 mPa·s. For the setting “313.15 K”, the mass density came out at 833.76 ± 0.57 kg/m3, the speed of sound turned out to be 1129.9 ± 1.6 m/s and the viscosity was found to be 0.4088 ± 0.012 mPa·s.
Consider `CCCCO` [butan-1-ol], for which, for the setting “283.15 K”, the mass density was found to be 816.92 ± 0.59 kg/m3, the speed of sound amounted to 1292.1 ± 1.7 m/s and the viscosity came to 3.869 ± 0.087 mPa·s. Under “298.15 K”, the mass density turned out to be 805.73 ± 0.6 kg/m3, the speed of sound is listed as 1242.9 ± 1.6 m/s and the viscosity amounted to 2.561 ± 0.059 mPa·s. In addition, for the setting “313.15 K”, the mass density stood at 794.38 ± 0.6 kg/m3, the speed of sound was 1186.3 ± 1.6 m/s and the viscosity is 1.757 ± 0.042 mPa·s.

Broadly, the mass density is the mass of a sample divided by its volume. A word on the speed of sound: it is how fast a sound wave travels through the sample. Usually viscosity stands for the internal friction of a fluid under shear.

The values are drawn from the NIST ThermoML archive (doi:10.1021/je060017i).
